According to patent US9732094B2, “Arylquinazolines” (Merck Patent GmbH, priority 2013, dated 2017):
Like-named read-outs stand apart in the source and are kept apart here.

Columns and labels:
Kv11.1 (hERG) [1] = molecular target: T1, Kv11.1 (hERG) (Homo sapiens (Human), UniProt Q12809)
DNA-PK [2] = molecular target: T2, DNA-PK (Homo sapiens (Human), UniProt P78527); test: DNA-PK assay (biochemical), flashplate 33P-ATP kinase assay
Procedure, shortened: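 Radiometric kinase reaction in streptavidin-coated flashplates, stopped with 200 mM EDTA, then 30 min room-temperature incubation and saline washes.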

[3] = molecular target: DNA-PK phosphorylation at serine 2056 (Homo sapiens (Human), UniProt P78527); test: DNA-PK phosphorylation at serine 2056 (cellular), bleomycin-treated HCT116 cells, ELISA; type: cell-based; conditions: cellular DNA-PK phosphorylation at serine 2056, HCT116; read-out: IC50 pDNA-PK
Procedure, shortened: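 Chemiluminescent ELISA quantified DNA-PK Ser2056 phosphorylation relative to total DNA-PKcs in HCT116 cells. Cells received compounds together with 10 μM bleomycin for 6 h; DMSO served as blank.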

Kv11.1 (hERG) [4] = molecular target: T1, Kv11.1 (hERG); test: Kv11.1 ion channel binding assay (Predictor hERG fluorescence polarisation); conditions: cells marked *: measured using hERG binding assay instead of hERG patch clamp assay; read-out: Ki [Kv1.11 hERG]
Experimental: D) Kv11.1 Ion Channel Binding Assay
Kv11.1 (hERG=human ether a go-go related […]) is a cardiac K^+ channel which should if possible not interact with the test substances. This interaction is determined quantitatively with the aid of the Predictor™ hERG Fluorescence Polarizations (FP) Assays from Life Technologies. In the case of this assay principle, cardiomyocyte cell membranes having a certain proportion of Kv11.1 channels are isolated. A dye-labelled Kv11.1 binding partner gives a high fluorescence polarisation signal by interaction with the Kv11.1. In the case of displacement of the dye, a reduction in the fluorescence polarisation signal occurs.
The assay is carried out automatically as follows: 15 nl of the test substances (highest concentration: 10 mM, 10 concentrations: dilution factors 1:3.16, DMSO) are transferred into an empty microtitre plates having 384 wells by means of an acoustic pipetter. 3 μl of the isolated membranes are subsequently added. Membranes and test substances are incubated at 22° C. for 15 min (+/−5 min). In the next step, the dye-labelled binding partner is added, followed by incubation at 22° C. After incubation for two hours, the measurement of the fluorescence polarisation is carried out on an Envision multimode Reader. Measured raw data are standardised with the aid of Genedata Assay Analyzer. The 1050 and % effect values are calculated in Genedata Condoseo.

[5] = system: kinases of the PI3K isoenzyme family; conditions: cited from earlier work
DNA-PK [6] = molecular target: T2, DNA-PK; conditions: ATP-competitive; Hardcastle et al. (2005); cited from earlier work

T1 sequence (Q12809 whole entry): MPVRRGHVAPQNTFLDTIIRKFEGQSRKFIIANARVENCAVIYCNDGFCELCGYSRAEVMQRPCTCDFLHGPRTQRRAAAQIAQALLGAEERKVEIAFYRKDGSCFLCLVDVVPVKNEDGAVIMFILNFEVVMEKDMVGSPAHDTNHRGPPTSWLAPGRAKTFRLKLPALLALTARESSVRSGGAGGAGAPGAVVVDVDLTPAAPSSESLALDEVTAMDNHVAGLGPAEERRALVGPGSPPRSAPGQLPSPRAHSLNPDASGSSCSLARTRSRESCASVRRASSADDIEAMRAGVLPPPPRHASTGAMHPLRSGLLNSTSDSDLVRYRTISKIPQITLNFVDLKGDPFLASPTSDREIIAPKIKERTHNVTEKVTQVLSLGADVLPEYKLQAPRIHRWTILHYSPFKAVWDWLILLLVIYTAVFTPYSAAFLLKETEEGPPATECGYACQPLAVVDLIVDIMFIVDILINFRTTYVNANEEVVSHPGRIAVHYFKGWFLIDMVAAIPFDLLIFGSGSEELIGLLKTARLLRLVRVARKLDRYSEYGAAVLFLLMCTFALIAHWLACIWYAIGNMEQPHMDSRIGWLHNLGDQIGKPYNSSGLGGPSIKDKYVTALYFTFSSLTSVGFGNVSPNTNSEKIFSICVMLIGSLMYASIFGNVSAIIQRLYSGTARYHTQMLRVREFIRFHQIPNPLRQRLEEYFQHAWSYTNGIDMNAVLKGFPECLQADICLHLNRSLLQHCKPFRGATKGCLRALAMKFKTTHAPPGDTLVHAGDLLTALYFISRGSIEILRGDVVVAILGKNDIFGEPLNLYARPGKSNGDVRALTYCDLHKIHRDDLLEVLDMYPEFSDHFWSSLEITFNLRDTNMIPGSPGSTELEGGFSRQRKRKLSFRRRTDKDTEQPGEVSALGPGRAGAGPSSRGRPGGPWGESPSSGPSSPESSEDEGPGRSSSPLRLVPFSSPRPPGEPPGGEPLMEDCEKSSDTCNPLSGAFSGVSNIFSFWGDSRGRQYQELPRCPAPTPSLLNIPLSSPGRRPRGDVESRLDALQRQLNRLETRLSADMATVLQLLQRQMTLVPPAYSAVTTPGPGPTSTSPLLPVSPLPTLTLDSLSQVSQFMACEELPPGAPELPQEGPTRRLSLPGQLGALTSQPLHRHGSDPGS

Row | Structure (SMILES) | IC50 [3] [nM] | Ki (Kv11.1 (hERG) [4]) [nM] | IC50 (DNA-PK [2]; biochemical DNA-PK assay) [nM] | further results
1 | O=c1ccc(C(O)c2ccc(F)c(-c3ncnc4cc(N5C6CCC5COC6)ccc34)c2)n[nH]1 (stereo not shown) [Example 75, 6-({4-Fluoro-3-[7-(3-oxa-8-aza-bicyclo-[3.2.1]oct-8-yl)-quinazolin-4-yl]phenyl}-hydroxymethyl)-2H-pyridazin-3-one] | – | – | – | Ki (Kv11.1 (hERG) [1]): > 25000 nM; IC50 (DNA-PK [2]; enzymatic, 5 μM ATP): > 30 nM
2 | CN1N=C(C(O)c2cc(-c3ncnc4cc(N5CCOCC5)ccc34)c(F)cc2Cl)CCC1=O (stereo not shown) [Example 288, 6-{[2-Chloro-4-fluoro-5-(7-morpholin-4-yl-quinazolin-4-yl)-phenyl]hydroxy-methyl}-2-methyl-4,5-dihydro-2H-pyridazin-3-one] | 5000 to 10000 | > 25000 | 7 to 30 | –
3 | OC(c1ccc(F)c(-c2ncnc3cc(N4CCOCC4)ccc23)c1)c1ncnc2ccoc12 (stereo not shown) [Example 443, [4-fluoro-3-(7-morpholin-4-yl-quinazolin-4-yl)-phenyl]furo[3,2-d}-pyrimidin-4-yl-methanol] | 500 to 5000 | > 25000 | 3 to 7 | –
4 | COc1ccc(C(O)c2cc(-c3ncnc4cc(N5CCOCC5)ccc34)ccc2Cl)nn1 (stereo not shown) [Example 459, [2-Chloro-5-(7-morpholin-4-yl-quinazolin-4-yl)-phenyl]-(6-methoxy-pyridazin-3-yl)-methanol] | 500 to 5000 | > 25000 | 3 to 7 | –
5 | COc1ccc(C(O)c2cc(-c3ncnc4cc(N5CCOCC5)ccc34)ccc2Cl)nn1 (stereo not shown) [Example 460, [2-Chloro-5-(7-morpholin-4-yl-quinazolin-4-yl)-phenyl]-(6-methoxy-pyridazin-3-yl)-methanol] | < 500 | > 25000 | 3 to 7 | –
6 | Cn1cnc2ccnc(C(O)c3ccc(F)c(-c4ncnc5cc(N6CCOCC6)ccc45)c3)c21 (stereo not shown) [Example 461, [4-Fluoro-3-(7-morpholin-4-yl-quinazolin-4-yl)-phenyl]-(3-methyl-3H-imidazo[4,5-c]-pyridin-4-yl)methanol] | < 500 | > 25000 | < 3 | –
7 | OC(c1ccc(F)c(-c2ncnc3cc(N4CCOCC4)ccc23)c1)c1ncnc2ccoc12 (stereo not shown) [Example 471, [4-Fluoro-3-(7-morpholin-4-yl-quinazolin-4-yl)-phenyl]furo[3,2-d}-pyrimidin-4-yl-methanol] | < 500 | > 25000 | < 3 | –
8 | CCN1CCN(CC(=O)Nc2ccc(-c3cccc4c(=O)cc(N5CCOCC5)oc34)c3sc4ccccc4c23)CC1 [KU-0060648] | – | – | – | inhibition of kinases of the PI3K isoenzyme family [5]: potently inhibited
9 | O=c1cc(N2CCOCC2)oc2c(-c3cccc4c3sc3ccccc34)cccc12 [NU-7441] | – | – | – | IC50 (DNA-PK [6]): 20 nM
